Data from US20230382863A1, “MEK INHIBITORS AND USES THEREOF” (Ikena Oncology, Inc., priority 2022, published 2023).
Where two headings read alike, the source gives them in different places.

Experiments:
pERK HCT-116 (G13D) = pERK HCT-116 (G13D) ICW (4 hour); assay type: cell-based
uMEK/BRAF = uMEK/BRAF (Homo sapiens (Human), UniProt Q02750); assay: MEK-RAF Binding Assay (uMEK/BRAF HTRF)
MEK1-CRAF complex = MEK1-CRAF complex (Homo sapiens (Human), UniProt Q02750); assay: Stabilization of MEK1-CRAF complex assay (AlphaLISA); assay type: binding
Experimental: MEK1 was diluted to 4 nM, and nickel chelate donor beads and glutathione acceptor beads were diluted to 80 μg/mL. CRAF was diluted to a top concentration of 160 nM, which was subsequently diluted to 80, 40, 20, 10, 5, 2.5, 1.25, and 0.625 nM through 1:2 serial dilution.
Exemplary MEK inhibitor compounds (0, 0.01, 0.1, or 1 μM) were added to a 384-AlphaPlate (PerkinElmer, 6008350) by a digital liquid dispenser (Tecan D300e) based on a total volume of 20 μL reaction mixture.
5 μL 4×MEK1 stock solution was added to wells A1-P20 by multichannel pipettes. The plate was sealed with clear olefin sealing tape (Thermo Scientific, 232701), centrifuged at 1000 rpm for 1 minute, and incubated at room temperature for 30 minutes.
5 μL 4×CRAF stock solution at different concentrations or 5 μL or 10 μL AlphaLISA buffer was added by multichannel pipettes. The plate was sealed, centrifuged at 1000 rpm for 1 minute, and incubated at room temperature for 60 minutes.
5 μL 4×glutathione acceptor beads were first added to all wells by multichannel pipettes. The ambient light was subsequently adjusted to <100 lux (light meter) before adding 5 μL 4×nickel chelate donor beads to the same wells. From this step on, the plate was covered with a black plate cover, centrifuged at 1000 rpm for 1 minute, and incubated at room temperature for 60 minutes.
Data were collected on a PHERAStar FSX (BMG LABTECH) using the AlphaLISA module (excitation: 680 nm, emission: 615 nm), with a gain of 3600. The excitation time was 0.30 seconds, and data collection started after a 0.04-second delay for a total integration time of 0.60 seconds.
The individual AlphaLISA counts of wells with exemplary MEK inhibitor compound were divided by the average AlphaLISA counts of wells without compound to obtain AlphaLISA signal/background ratio (S/B). The dissociation constant (KD) of MEK1-CRAF was calculated using nonlinear regression curve fit in GraphPad PRISM® 9.0 software.

[1] = Cassette pharmacokinetics studies in mice; assay type: in vivo; details: male, Balb/c, plasma; Mouse, PO, 5 mg/kg
Experimental: Pharmacokinetics studies were conducted using cassette dosing protocols, with test compounds administered per mouse. Treatment groups were 3 mice (˜6-8 weeks old, ˜20-30 g Balb/c male mice) per route of administration. Compounds were formulated in 5% DMSO and 95% PEG400 with final concentrations of 0.5 mg/mL for IV and PO dosing. Compounds were dosed at 2 mg/kg for IV dosing and 5 mg/kg for PO dosing. Blood samples were withdrawn at 0.083, 0.25, 0.5, 1.0, 2.0, 4.0, 6.0, 8.0, and 24 hours following IV dosing, and 0.25, 0.5, 1.0, 2.0, 4.0, 6.0, 8.0, and 24 hours following PO dosing. Blood samples were centrifuged at 4,000 g for 5 minutes at 4° C. to obtain plasma samples. Plasma samples were diluted with acetonitrile containing internal standard, vortexed for 30 seconds, then centrifuged at 4,000 rpm for 15 minutes at 4° C. The supernatant was diluted with water, and compound concentration was determined by HPLC/MS/MS compared to calibration standards of 0.5-1,000 ng/mL.
Where route is listed as “IV*”, the compound was dosed IV at 1 mg/kg.

[2] = system: Phosphorylation of ERK1/2 in AsPC1 cells; assay: 4 hour pERK1/2 HTRF Assay; assay type: cell-based; details: Homo sapiens, ASPC1, read-out: pERK AsPC-1 HTRF (4 hour): Average IC50 (nM); AsPC-1, 4 hour
Experimental: AsPC1 cells were seeded at 20,000 cells/well overnight in 96-well plates, then treated with a 12-point dose response of compounds (Starting dose of 3000 nM and 3-fold dilution) for 4 hours. AsPC1 cells are a K-Ras mutant cell line. Phosphorylation of ERK1/2 on residues Thr202 and Tyr204 were detected using a Homogenous Time-Resolved Fluorescence (HTRF) assay (Cisbio Cat #64ERKPEG). Briefly, ERK phosphorylation was detected using a sandwich assay format using two phospho-ERK specific antibodies, one labelled with EU^3+-Cryptate (donor) and the second with d2 (acceptor). The Fluorescence Resonance Energy Transfer (FRET) towards the d2 acceptor was detected at a wavelength of 665 nm. ERK1/2 phosphorylation levels were normalized to total ERK1/2 protein levels in each well. IC50 values were determined by fitting a variable slope, four parameters curve to the compound concentration to normalized Phospho-ERK1/2 relationship.

[3] = Homo sapiens, read-out: pERK HCT-116 (G13D) ICW (4 hour): Average IC50 (nM)
[4] = read-out: pERK HCT-116 (G13D) ICW (4 hour): Average IC50

| Compound | IC50 (pERK HCT-116 (G13D); [3]) [nM] | IC50 (uMEK/BRAF) [nM] | other results |
| --- | --- | --- | --- |
| Cc1c(Oc2ccc3c(c2)CN(C)S(=O)(=O)N3)c(C(=O)NC2CC2)c(Nc2ccc(I)cc2F)n(C)c1=O [Compound I-60] | < 100 | 100 to 1000 | – |
| CNS(=O)(=O)Nc1cccc(Oc2c(C(=O)NC3CC3)c(Nc3ccc(I)cc3F)n(C)c(=O)c2C)c1C [Compound I-3] | < 100 | < 100 | – |
| CNS(=O)(=O)Nc1ccc(F)c(Oc2c(C(=O)NC3CC3)c(Nc3ccc(I)cc3F)n(C)c(=O)c2C)c1 [Compound I-17] | 100 to 1000 | 100 to 1000 | – |
| CNS(=O)(=O)Nc1cc(Oc2c(C(=O)NC3CC3)c(Nc3ccc(I)cc3F)n(C)c(=O)c2C)ccc1C [Compound I-22] | 1000 to 10000 | 100 to 1000 | – |
| CNS(=O)(=O)Nc1cccc(Oc2c(C(=O)NC(C)C)c(Nc3ccc(I)cc3F)n(C)c(=O)c2C)c1Cl [Compound I-41] | – | – | KD Ratio (mean), compound to DMSO (MEK1-CRAF complex; compound 0.01 μM): 0.79; KD Ratio (mean), compound to DMSO (MEK1-CRAF complex; compound 0.1 μM): 0.57; KD Ratio (mean), compound to DMSO (MEK1-CRAF complex; compound 1 μM): 0.48; AUC(0-inf) [1]: 3470 ng·h/mL; AUC(0-t) [1]: 3340 ng·h/mL; Cmax [1]: 1260 ng/mL; Tmax [1]: 0.5 h; half-life [1]: 1.62 h |
| N-cyclopropyl-2-[(2-fluoro-4-iodophenyl)amino]-4-(3-methanesulfonoimidamidophenoxy)-1,5-dimethyl-6-oxopyridine-3-carboxamide [Compound I-20] | – | 100 to 1000 | IC50 (pERK HCT-116 (G13D); [4]): 100 to 1000 nM |
| CNS(=O)(=O)Nc1cc(F)cc(Oc2c(C(=O)NC3CC3)c(Nc3ccc(I)cc3F)n(C)c(=O)c2C)c1 [Compound I-10] | < 100 | < 100 | – |
| Cc1c(Oc2cccc(N=S(C)(N)=O)c2)c(C(=O)NC2CC2)c(Nc2ccc(I)cc2F)n(C)c1=O (stereo in doubt) [Compound I-7, (S)-4-(3-((amino(methyl)oxo-lambda6-sulfaneylidene)amino)phenoxy)-N-cyclopropyl-2-((2-fluoro-4-iodophenyl)amino)-1,5-dimethyl-6-oxo-1,6-dihydropyridine-3-carboxamide] | < 100 | < 100 | – |
| Cc1c(Oc2cccc(NS(N)(=O)=O)c2)c(C(=O)NC2CC2)c(Nc2ccc(I)cc2F)n(C)c1=O [Compound I-6] | < 100 | < 100 | – |
| CNS(=O)(=O)n1ccc2c(Oc3c(C(=O)NC4CC4)c(Nc4ccc(I)cc4F)n(C)c(=O)c3C)cccc21 [Compound I-12] | 1000 to 10000 | < 100 | – |
| CNS(=O)(=O)Nc1cc(Oc2c(C(=O)NC3CC3)c(Nc3ccc(I)cc3F)n(C)c(=O)c2C)ccc1OC [Compound I-18] | 1000 to 10000 | 100 to 1000 | – |
| CCNC(=O)c1c(Oc2cccc(NS(=O)(=O)NC)c2Cl)c(C)c(=O)n(C)c1Nc1ccc(I)cc1F [Compound I-54] | – | – | KD Ratio (mean), compound to DMSO (MEK1-CRAF complex; compound 0.01 μM): 0.58; KD Ratio (mean), compound to DMSO (MEK1-CRAF complex; compound 0.1 μM): 0.36; KD Ratio (mean), compound to DMSO (MEK1-CRAF complex; compound 1 μM): 0.35; AUC(0-inf) [1]: 4540 ng·h/mL; AUC(0-t) [1]: 4390 ng·h/mL; Cmax [1]: 1670 ng/mL; Tmax [1]: 0.5 h; half-life [1]: 1.6 h |
| CNS(=O)(=O)Cc1cccc(Oc2c(C(=O)NC3CC3)c(Nc3ccc(I)cc3F)n(C)c(=O)c2C)c1 [Compound I-23, N-cyclopropyl-2-((2-fluoro-4-iodophenyl)amino)-1,5-dimethyl-4-(3-((N-methylsulfamoyl)methyl)phenoxy)-6-oxo-1,6-dihydropyridine-3-carboxamide] | – | 100 to 1000 | IC50 (pERK HCT-116 (G13D); [4]): 1000 to 10000 nM |
| CNS(=O)(=O)Nc1ccc(Oc2c(C(=O)NC3CC3)c(Nc3ccc(I)cc3F)n(C)c(=O)c2C)cc1 [Compound I-64] | – | 100 to 1000 | AUC(0-inf) [1]: 505 ng·h/mL; AUC(0-t) [1]: 492 ng·h/mL; Cmax [1]: 231 ng/mL; Tmax [1]: 0.8 h; half-life [1]: 2.1 h; IC50 [2]: 100 to 1000 nM |
| Cc1c(Oc2ccc3c(c2)CNS(=O)(=O)N3)c(C(=O)NC2CC2)c(Nc2ccc(I)cc2F)n(C)c1=O [Compound I-59] | 100 to 1000 | 100 to 1000 | – |
| Cc1c(Oc2ccc3c(c2)CNS(=O)(=O)N3C)c(C(=O)NC2CC2)c(Nc2ccc(I)cc2F)n(C)c1=O [Compound I-61] | 100 to 1000 | 100 to 1000 | – |
| Cc1c(Oc2cccc(CS(=O)(=O)N(C)C)c2)c(C(=O)NC2CC2)c(Nc2ccc(I)cc2F)n(C)c1=O [Compound I-11] | 100 to 1000 | < 100 | – |
| Cc1c(Nc2ccc3c(c2)CNS(=O)(=O)N3)c(C(=O)NC2CC2)c(Nc2ccc(I)cc2F)n(C)c1=O [Compound I-62] | < 100 | < 100 | – |
| CNS(=O)(=O)Nc1cccc(Oc2c(C(=O)NC3CC3)c(Nc3ccc(I)cc3F)n(C)c(=O)c2C)c1F [Compound I-4, N-cyclopropyl-4-{2-fluoro-3-[(methylsulfamoyl)amino]phenoxy}-2-[(2-fluoro-4-iodophenyl)amino]-1,5-dimethyl-6-oxopyridine-3-carboxamide] | < 100 | < 100 | – |
| Cc1c(Oc2ccc3c(c2)NS(=O)(=O)NC3)c(C(=O)NC2CC2)c(Nc2ccc(I)cc2F)n(C)c1=O [Compound I-13] | 100 to 1000 | 100 to 1000 | – |
| Cc1c(Oc2cccc(CS(N)(=O)=O)c2)c(C(=O)NC2CC2)c(Nc2ccc(I)cc2F)n(C)c1=O [Compound I-16] | 100 to 1000 | 100 to 1000 | – |
| CNS(=O)(=O)Nc1ccc(OC)c(Oc2c(C(=O)NC3CC3)c(Nc3ccc(I)cc3F)n(C)c(=O)c2C)c1 [Compound I-26] | 1000 to 10000 | 1000 to 10000 | – |
| CNS(=O)(=O)Nc1cc(OC)cc(Oc2c(C(=O)NC3CC3)c(Nc3ccc(I)cc3F)n(C)c(=O)c2C)c1 [Compound I-25] | 1000 to 10000 | 1000 to 10000 | – |
| CNS(=O)(=O)Nc1cccc(Oc2c(C(=O)N(C)C3CC3)c(Nc3ccc(I)cc3F)n(C)c(=O)c2C)c1C [Compound I-24] | 100 to 1000 | 1000 to 10000 | – |
| Cc1c(Oc2cccc(N=S(C)(N)=O)c2)c(C(=O)NC2CC2)c(Nc2ccc(I)cc2F)n(C)c1=O (stereo in doubt) [Compound I-8, (R)-4-(3-((amino(methyl)oxo-lambda6-sulfaneylidene)amino)phenoxy)-N-cyclopropyl-2-((2-fluoro-4-iodophenyl)amino)-1,5-dimethyl-6-oxo-1,6-dihydropyridine-3-carboxamide] | < 100 | < 100 | – |
| CNS(=O)(=O)Nc1cc(Oc2c(C(=O)NC3CC3)c(Nc3ccc(I)cc3F)n(C)c(=O)c2C)ccc1F [Compound I-15] | 100 to 1000 | 100 to 1000 | – |
| CNS(=O)(=O)Nc1cccc(Oc2c(C(=O)NC3CC3)c(Nc3ccc(I)cc3F)n(C)c(=O)c2C)c1 [Compound I-5, N-cyclopropyl-2-((2-fluoro-4-iodophenyl)amino)-1,5-dimethyl-4-(3-((N-methylsulfamoyl)amino)phenoxy)-6-oxo-1,6-dihydropyridine-3-carboxamide] | < 100 | < 100 | – |
